Test results: ChEMBL document CHEMBL4831518, “Structure-aided optimization of non-nucleoside M. tuberculosis thymidylate kinase inhibitors” (Eur J Med Chem, 2021)
Values after ≈ are worked out from the molar mass of the structure shown.

Tests used:
[1] = system: Mycobacterium tuberculosis; test: Antibacterial activity against Mycobacterium tuberculosis H37Rv harboring Tap deletion mutant assessed as inhibition of bacterial growth incubated for 6 hrs by microdilution assay; type: functional
[2] = system: Mycobacterium tuberculosis; test: Antibacterial activity against Mycobacterium tuberculosis H37Rv harboring mmr deletion mutant assessed as inhibition of bacterial growth incubated for 6 hrs by microdilution assay; type: functional

| SMILES | MIC [1] | MIC [2] |
| --- | --- | --- |
| Cc1cn(C2CCN(Cc3cccc(Oc4cc(Cl)cc(Cl)c4)c3)CC2)c(=O)[nH]c1=O | 15.6 µg/mL (≈ 33.9 µM) | 15.6 µg/mL (≈ 33.9 µM) |
| COc1ccc(Oc2cccc(CN3CCC(n4cc(C)c(=O)[nH]c4=O)CC3)c2)cc1 | 31.25 µg/mL (≈ 74.1 µM) | 15.6 µg/mL (≈ 37 µM) |
| Cc1cn(C2CCN(Cc3cccc(Oc4ccccc4)n3)CC2)c(=O)[nH]c1=O | >250 µg/mL | >250 µg/mL |
| Cc1cn(C2CCN(Cc3ccnc(Oc4cccc(Cl)c4)c3)CC2)c(=O)[nH]c1=O | 31.25 µg/mL (≈ 73.2 µM) | 31.25 µg/mL (≈ 73.2 µM) |
| Cc1ccc(Oc2cccc(CN3CCC(n4cc(C)c(=O)[nH]c4=O)CC3)c2)cc1 | 15.6 µg/mL (≈ 38.5 µM) | 15.6 µg/mL (≈ 38.5 µM) |
